System: patients aged 40-80 years with moderate to severe COPD
Test: Multi-centre, randomized, double-blind, placebo-controlled clinical study of nebulised ensifentrine in COPD (FEV1 spirometry)
Type: in vivo
Conditions: for Average change in baseline FEV1 (AUC)0-12 h at Week 12: 3 mg BID by nebuliser
Protocol: A clinical study was conducted to determine the efficacy of ensifentrine in treating COPD compared with placebo. Ensifentrine was administered by nebuliser at a dose of 3 mg twice daily (BID) for 24 weeks. The study was a multi-centre, randomized, double-blind, parallel-group, placebo-controlled trial with around 800 patients and 5:3 randomization.
The study population included patients aged 40-80 years with moderate to severe COPD (FEV1 30%-70% p.n., FEV1/forced vital capacity (FVC) ratio <0.7, with mMRC≥2). The randomization stratified (a) the use of stable background maintenance LAMA or LABA therapy use (approx. 50%. yes or no) and (b) cigarette smoking (current or former). Inhaled corticosteroid (ICS) maintenance therapy was permitted in up to 20% of patients under certain provisions.
The primary endpoint of the study was change from baseline in average FEV1 area under the curve (AUC)0-12 h post-dose at week 12. Secondary endpoints of the study included: peak FEV1 over 4 hours post-dose at Week 12; morning trough FEV1 at Week 12; and other endpoints including moderate/severe COPD exacerbations frequency over 24 Weeks.
COPD severity is derived as follows: mild: 80%<=FEV1, moderate: 50%<=FEV1<80% predicted, severe: 30%<=FEV1<50% predicted and very severe: FEV1<30% predicted, post bronchodilator dose at Screening.
Baseline FEV1 is the mean of the two measurements taken before study medication on the day of first dosing, i.e. ≤40 minutes and just prior to dosing, both pre-dose on day 1.
Average FEV1 AUC0-12 h is defined as area under the curve over 12 hours of the FEV1, divided by 12 hours.
The investigational product and placebo were provided in 2.5 mL unit dose format in an ampule and administered via a nebuliser.

COc1cc2c(cc1OC)-c1c/c(=N\c3c(C)cc(C)cc3C)n(CCNC(N)=O)c(=O)n1CC2 [Ensifentrine, N-(2-{(2E)-9,10-dimethoxy-4-oxo-2-[(2,4,6-trimethylphenyl)imino]-6,7-dihydro-2H-pyrimido[6,1-a]isoquinolin-3(4H)-yl}ethyl)urea]
Improvement in lung function (all subgroups of COPD patients in the study): statistically significant
Improving lung function in moderate COPD (moderate COPD patients): particularly effective
Average change in baseline FEV1 (AUC)0-12 h at Week 12 (patients with moderate COPD): 139 mL
Average change in baseline FEV1 (AUC)0-12 h at Week 12 (patients with severe COPD): 45 mL

From patent US20240173327A1, “NEW TREATMENT” (Verona Pharma PLC, priority 2022, published 2024)
